For three compounds, Activity results are on record in ChEMBL document CHEMBL1151146, “Starfish Saponins, Part 43. Structures of Two New Sulfated Steroidal Fucofuranosides (Imbricatosides A and B) and Six New Polyhydroxysteroids from the Starfish Dermasterias imbricata” (J Nat Prod, 1990).

In data set [1] the test system is Cladosporium cucumerinum. Description: Antimicrobial activity against Cladosporium cucumerinum at 3 ug by TLC-based direct bioautography. Type of data set: functional, organism-based.
Data set [2] in a line: Inhibition of cell division of fertilized sea urchin eggs. The arrangement: species or system Egg. To be noted: echinoidea.
Data set [3] relates to Cladosporium cucumerinum. The data set is described as follows: Antimicrobial activity against Cladosporium cucumerinum at <1 ug by TLC-based direct bioautography. Type of data set: functional, organism-based.
For data set [4], the system named is Cladosporium cucumerinum. The data set is described as follows: Antimicrobial activity against Cladosporium cucumerinum at 5 ug by TLC-based direct bioautography. The data set is classed as functional, organism-based.

The source made the active and inactive calls. No cut-off for these calls is given here.

Regarding `CC(C)[C@@H](O)CC[C@@H](C)[C@H]1C[C@@H](O)[C@@H]2[C@]1(C)CC[C@@H]1[C@@]3(C)CC[C@H](O)C[C@@H]3[C@@H](O)C[C@]12O`, the result with Cladosporium cucumerinum [1] was Active.

On to `CC(C)[C@@H](O)/C=C/[C@@H](C)[C@H]1C[C@@H](O)[C@@H]2[C@]1(C)CC[C@@H]1[C@@]3(C)CC[C@H](O)C[C@@H]3[C@@H](O)C[C@]12O`, for which the result in data set [2] was Active. Also, the result in the data set with Cladosporium cucumerinum [3] was Active.

As for `C[C@H](CO)C/C=C/[C@@H](C)[C@H]1C[C@@H](O)[C@@H]2[C@]1(C)CC[C@@H]1[C@@]3(C)CC[C@H](O)C[C@@H]3[C@@H](O)C[C@]12O`, the outcome with Cladosporium cucumerinum [4] was Active.
